From ChEMBL document CHEMBL2390840, “An analysis of the synthetic tryptamines AMT and 5-MeO-DALT: emerging 'Novel Psychoactive Drugs'” (Bioorg Med Chem Lett, 2013)
pIC50, pKi: −log10 of the molar value.

Key:
[1] = target: Sodium-dependent serotonin transporter (Homo sapiens, UniProt P31645); format: cell-based, HEK293
[2] = target: Sodium-dependent noradrenaline transporter (Homo sapiens, UniProt P23975); assay: Inhibition of [3H]norepinephrine uptake at human NET expressed in HEK293 cells preincubated for 10 mins prior to substrate addition measured after 4 mins by […]; format: cell-based
Sodium-dependent noradrenaline transporter, sequence (P23975 whole entry): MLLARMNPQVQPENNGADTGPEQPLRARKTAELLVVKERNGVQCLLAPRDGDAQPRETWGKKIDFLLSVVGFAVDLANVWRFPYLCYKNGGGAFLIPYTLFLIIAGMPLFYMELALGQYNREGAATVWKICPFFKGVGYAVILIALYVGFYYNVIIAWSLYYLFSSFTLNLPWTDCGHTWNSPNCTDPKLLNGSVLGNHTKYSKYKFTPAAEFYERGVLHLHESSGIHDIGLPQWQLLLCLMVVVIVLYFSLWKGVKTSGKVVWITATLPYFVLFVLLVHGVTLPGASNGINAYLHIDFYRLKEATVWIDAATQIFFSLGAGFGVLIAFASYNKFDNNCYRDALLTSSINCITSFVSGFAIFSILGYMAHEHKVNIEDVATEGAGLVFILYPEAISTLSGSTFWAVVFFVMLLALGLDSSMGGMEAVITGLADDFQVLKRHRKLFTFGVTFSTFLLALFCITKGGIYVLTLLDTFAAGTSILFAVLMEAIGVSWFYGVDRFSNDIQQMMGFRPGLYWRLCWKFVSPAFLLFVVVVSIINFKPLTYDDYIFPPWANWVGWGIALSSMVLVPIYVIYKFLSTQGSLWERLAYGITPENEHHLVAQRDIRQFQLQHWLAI

[3] = target: Sodium-dependent dopamine transporter (Homo sapiens, UniProt Q01959); format: cell-based, HEK293
Sodium-dependent dopamine transporter, sequence (Q01959 whole entry): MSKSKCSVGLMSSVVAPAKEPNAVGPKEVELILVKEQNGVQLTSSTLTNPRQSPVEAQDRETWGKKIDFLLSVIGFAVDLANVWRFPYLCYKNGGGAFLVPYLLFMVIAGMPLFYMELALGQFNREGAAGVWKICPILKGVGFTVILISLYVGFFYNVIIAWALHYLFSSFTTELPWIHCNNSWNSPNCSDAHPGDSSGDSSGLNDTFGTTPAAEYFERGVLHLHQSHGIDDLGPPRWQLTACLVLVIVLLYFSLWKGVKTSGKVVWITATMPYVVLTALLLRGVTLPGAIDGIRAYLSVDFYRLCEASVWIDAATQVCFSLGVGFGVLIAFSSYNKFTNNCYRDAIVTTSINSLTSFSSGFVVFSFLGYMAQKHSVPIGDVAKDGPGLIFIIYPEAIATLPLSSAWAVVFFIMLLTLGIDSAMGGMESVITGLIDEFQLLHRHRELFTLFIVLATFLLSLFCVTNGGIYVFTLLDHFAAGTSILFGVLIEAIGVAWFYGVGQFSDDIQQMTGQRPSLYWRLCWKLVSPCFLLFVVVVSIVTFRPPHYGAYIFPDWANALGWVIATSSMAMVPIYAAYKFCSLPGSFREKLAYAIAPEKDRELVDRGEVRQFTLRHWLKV

Sodium-dependent serotonin transporter, sequence (P31645 whole entry): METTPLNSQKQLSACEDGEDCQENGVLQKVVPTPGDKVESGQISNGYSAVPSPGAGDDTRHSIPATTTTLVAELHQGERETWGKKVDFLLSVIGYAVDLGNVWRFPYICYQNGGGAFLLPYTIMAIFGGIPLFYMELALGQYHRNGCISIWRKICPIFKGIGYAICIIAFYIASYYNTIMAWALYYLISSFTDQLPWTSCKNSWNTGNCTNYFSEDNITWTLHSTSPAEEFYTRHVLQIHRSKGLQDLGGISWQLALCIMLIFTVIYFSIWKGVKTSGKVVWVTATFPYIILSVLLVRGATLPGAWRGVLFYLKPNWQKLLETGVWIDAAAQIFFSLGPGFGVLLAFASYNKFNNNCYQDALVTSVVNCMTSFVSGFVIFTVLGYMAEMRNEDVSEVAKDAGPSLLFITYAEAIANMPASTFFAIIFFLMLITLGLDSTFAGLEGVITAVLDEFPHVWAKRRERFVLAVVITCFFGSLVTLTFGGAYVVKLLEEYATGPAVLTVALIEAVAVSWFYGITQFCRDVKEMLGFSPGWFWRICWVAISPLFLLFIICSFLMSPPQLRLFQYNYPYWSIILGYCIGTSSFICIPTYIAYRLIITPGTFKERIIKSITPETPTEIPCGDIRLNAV

Compound: CN[C@@H](C)Cc1ccc2c(c1)OCO2 (single isomer, unassigned; (+)) [MIDOMAFETAMINE]
- pIC50 [1]: 5.56
- pIC50 [2]: 5.70
- pIC50 [3]: 5.62
- pKi [3]: 6.05

Compound: CC(N)Cc1ccc2c(c1)OCO2 (single isomer, unassigned; (-)) [TENAMFETAMINE]
- pIC50 [1]: 5.17
- pKi [1]: 5.64
- pIC50 [2]: 5.50
- pKi [2]: 6.15
- pIC50 [3]: 5.21
- pKi [3]: 5.62

Compound: CN(C)CCC=C1c2ccccc2CCc2ccccc21 [AMITRIPTYLINE]
- pIC50 [3]: 4.90
- pKi [3]: 5.21
